pEC50: −log10 of the molar value.
Experiments:
[1] = Microsomal metabolic stability; type: in vitro ADME; conditions: 30 minutes at 37°C, rat microsomes
Experimental: Metabolic stability was conducted using pooled microsomes from non-induced male Sprague-Dawley rats. J-147 was incubated for 30 minutes at 37°C at concentrations of 1 μM. Subsequent HPLC analysis using a Waters Alliance 2795 in combination with a Waters Quattro Premier mass spectrometer measured disappearance of the parent molecule. The compounds were run on a Waters X-BridgeC18 (186003021) 50 × 2.1 mm column with 3.5 micron particle packing at a flow rate of 1 ml/min and with the temperature maintained at 50°C. Solvent A was water with 0.1% formic acid. Solvent B was acetonitrile with 0.07% formic acid. The data for 3 replicates are expressed as percent of parent remaining.

[2] = Drug solubility in culture medium (light scattering, Nepheloskan); type: physicochemical; conditions: complete culture medium with serum; medium with 10% bovine serum and 10% calf serum, 37°C; read-out: Solubility in the culture medium system
Experimental: The final concentration of DMSO in the 0–100 μM solutions was 0.5% and at the 300 μM solution DMSO was 1.5%. The final dosing solutions were prepared in Eagles Minimum Essential Medium. All experiments that used DMSO as the drug solvent also included a DMSO negative control. Negative controls of medium plus DMSO (0.5%) were included with and without cells. A positive control for complete cell death received 1 mM digitonin in medium on the day of dosing.
The samples were evaluated using light scattering with a Nepheloskan instrument. A reading that was greater than or equal to 3 times background was considered the limit of solubility.

[3] = test system: low-density cultured rat cortical neurons; conditions: previously published; read-out: EC50 neurotrophism; cited from earlier work
HT22 and primary cell = test system: HT22 and primary cell; set-up: method as in PMID 22194796, PMID 23673233; conditions: HT22 and primary cortical cells, IAA or glutamate toxicity; read-out: EC50 neuroprotection (cell survival); cited from earlier work
dopamine transporter = test system: dopamine transporter; set-up: method as in PMID 23673233; conditions: read-out: EC50 dopamine transporter inhibition; cited from earlier work

COc1cccc(/C=N/N(C(=O)C(F)(F)F)c2ccc(C)cc2C)c1 [J-147, (E)-N-(2,4-Dimethylphenyl)-2,2,2-trifluoro-N′-(3-methoxybenzylidene) acetohydrazide]
Metabolism Ranking ([1]; 1 μM): High (<45=high)
remaining at 0.5 h, 1 μM ([1]; male, Sprague-Dawley, pooled microsomes from non-induced rats, percent of parent remaining): 12%
solubility [2]: ≥ 300 µM
pEC50 [3]: 7.60
pEC50 (HT22 and primary cell): 6.94 to 7.22
pEC50 (dopamine transporter): 6.19

Reference: paper PMC4215638, “J-147 a Novel Hydrazide Lead Compound to Treat Neurodegeneration: CeeTox™ Safety and Genotoxicity Analysis” (Journal of neurology & neurophysiology, 2013)
